Assay results: patent US20240342292A1, “Compounds for the Degradation of EGFR Kinase” (BeiGene Switzerland GmbH, priority 2021, published 2024)

How the values were obtained:
Del19/T790M/C797S EGFR = assay: EGFR degradation HTRF assay in H1975-clone #28 (DTC) cells; assay type: cell-based; settings: H1975 # 28 DTC (Del19/T790M/C797S), 16h treatment; for DC50: HTRF; for Dmax (%): maximum percentage of degradation
Method in brief: (§1)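 Each homozygous H1975 clone was dosed for 16 h at 37 °C with an 8-dose, 5-fold series (top 10 uM, 0.2% DMSO). An HTRF antibody pair then measured EGFR in lysates, and a sigmoidal fit of percent inhibition gave DC50.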

L858R/T790M/C797S EGFR = biological target: T1, L858R/T790M/C797S EGFR (Homo sapiens, UniProt P00533, C797S/L858R/T790M); assay: EGFR degradation HTRF assay in H1975-clone #25 (LTC) cells; assay type: cell-based; settings: 16h treatment; for DC50: H1975 # 25-LTC (L858R/T790M/C797S), HTRF; for Dmax: NCI-H1975, H1975 # 25-LTC (L858R/T790M/C797S), maximum percentage of degradation
T1 construct: expressed in transfected cells; host or cells: H1975 clone #25 (lentiviral over-expression, endogenous EGFR knocked out by sgRNA)
T1 sequence (P00533 25-1210 T790M/C797S/L858R): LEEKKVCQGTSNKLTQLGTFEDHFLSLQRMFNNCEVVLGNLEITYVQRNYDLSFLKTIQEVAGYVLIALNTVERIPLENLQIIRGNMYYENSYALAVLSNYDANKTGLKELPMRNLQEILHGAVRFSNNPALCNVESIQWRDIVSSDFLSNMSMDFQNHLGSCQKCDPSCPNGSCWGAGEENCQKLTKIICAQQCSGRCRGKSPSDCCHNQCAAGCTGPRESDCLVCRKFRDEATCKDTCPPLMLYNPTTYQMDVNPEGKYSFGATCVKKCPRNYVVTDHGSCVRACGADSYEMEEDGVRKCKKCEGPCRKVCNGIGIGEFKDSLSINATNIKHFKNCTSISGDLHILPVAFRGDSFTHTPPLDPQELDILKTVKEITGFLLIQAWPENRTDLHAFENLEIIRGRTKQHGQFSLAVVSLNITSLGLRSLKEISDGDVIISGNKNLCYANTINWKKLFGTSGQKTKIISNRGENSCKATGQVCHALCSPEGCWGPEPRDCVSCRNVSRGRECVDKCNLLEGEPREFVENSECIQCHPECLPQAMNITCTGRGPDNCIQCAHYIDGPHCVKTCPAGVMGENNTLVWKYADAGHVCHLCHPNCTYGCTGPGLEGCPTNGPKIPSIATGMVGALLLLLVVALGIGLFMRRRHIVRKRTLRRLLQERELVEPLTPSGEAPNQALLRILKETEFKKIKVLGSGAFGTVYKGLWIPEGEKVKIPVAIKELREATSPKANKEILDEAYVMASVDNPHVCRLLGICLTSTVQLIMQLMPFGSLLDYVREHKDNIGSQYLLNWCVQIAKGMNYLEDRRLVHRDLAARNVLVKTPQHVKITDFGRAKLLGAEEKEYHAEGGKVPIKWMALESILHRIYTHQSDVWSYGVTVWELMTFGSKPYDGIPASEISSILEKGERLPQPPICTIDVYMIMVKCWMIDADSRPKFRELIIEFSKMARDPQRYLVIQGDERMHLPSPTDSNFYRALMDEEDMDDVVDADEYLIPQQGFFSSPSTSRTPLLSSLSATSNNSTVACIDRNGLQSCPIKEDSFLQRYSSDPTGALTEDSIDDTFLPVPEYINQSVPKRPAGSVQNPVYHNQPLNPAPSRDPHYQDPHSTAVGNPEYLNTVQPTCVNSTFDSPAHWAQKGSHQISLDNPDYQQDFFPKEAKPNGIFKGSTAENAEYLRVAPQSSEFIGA
Method in brief: as §1

Row | Structure (SMILES) | DC50 (Del19/T790M/C797S EGFR) [pM] | Dmax (%) (Del19/T790M/C797S EGFR) | DC50 (L858R/T790M/C797S EGFR) [pM] | Dmax (L858R/T790M/C797S EGFR) [%]
1 | Cc1cc2cc(n1)-c1cnn(C)c1OCCC[C@@H](C)CN1/C(=N/C2=O)Nc2ccc(C(=O)N3CCN(CCCc4cc(F)c([C@H]5CCC(=O)NC5=O)c(F)c4)CC3)cc21 [Example 341, (R)-3-(2,6-difluoro-4-(3-(4-((R,E)-1^1,2^6,7-trimethyl-3-oxo-5^2,5^3-dihydro-1^1H,5^1H-11-oxa-4-aza-5(2,1)-benzo[d]imidazola-2(2,4)-pyridina-1(4,5)-pyrazolacycloundecaphane-5^6-carbonyl)piperazin-1-yl)propyl)phenyl)piperidine-2,6-dione] | 621 | 79.84 | 540 | 86.8
2 | Cc1cc2cc(n1)-c1cnn(C)c1OCCC[C@@H](C)CN1/C(=N/C2=O)Nc2ccc(C(=O)N3CC(NCCc4cc(F)c([C@H]5CCC(=O)NC5=O)c(F)c4)C3)cc21 [Example 305, (R)-3-(2,6-difluoro-4-(2-((1-((R,E)-1^1,2^6,7-trimethyl-3-oxo-5^2,5^3-dihydro-1^1H,5^1H-11-oxa-4-aza-5(2,1)-benzo[d]imidazola-2(2,4)-pyridina-1(4,5)-pyrazolacycloundecaphane-5^6-carbonyl)azetidin-3-yl)amino)ethyl)phenyl)piperidine-2,6-dione] | 668 | 80.65 | 861 | 90.6
3 | Cc1cc2cc(n1)-c1cnn(C)c1OCCC[C@@H](C)CN1/C(=N/C2=O)Nc2ccc(N3CCN(C4CCN(c5cc(F)c([C@H]6CCC(=O)NC6=O)c(F)c5)CC4)CC3=O)cc21 [Example 374, (R)-3-(2,6-difluoro-4-(4-(3-oxo-4-((R,E)-1^1,2^6,7-trimethyl-3-oxo-5^2,5^3-dihydro-1^1H,5^1H-11-oxa-4-aza-5(2,1)-benzo[d]imidazola-2(2,4)-pyridina-1(4,5)-pyrazolacycloundecaphane-5^6-yl)piperazin-1-yl)piperidin-1-yl)phenyl)piperidine-2,6-dione] | 583 | 81.48 | 591 | 92.7
4 | Cc1cc2cc(n1)-c1cnn(C)c1OCCC[C@@H](C)CN1/C(=N/C2=O)Nc2ccc(CN(C)[C@H]3CCCN(C(=O)[C@@H]4CCN(c5cc(F)c([C@H]6CCC(=O)NC6=O)c(F)c5)C4)C3)cc21 [Example 319, (R)-3-(2,6-difluoro-4-((R)-3-((S)-3-(methyl(((R,E)-1^1,2^6,7-trimethyl-3-oxo-5^2,5^3-dihydro-1^1H,5′ H-11-oxa-4-aza-5(2,1)-benzo[d]imidazola-2(2,4)-pyridina-1(4,5)-pyrazolacycloundecaphane-5^6-yl)methyl)amino)piperidine-1-carbonyl)pyrrolidin-1-yl)phenyl)piperidine-2,6-dione] | 643 | 74.25 | 1260 | 83.4
5 | Cc1cc2cc(n1)-c1cnn(C)c1OCCC[C@@H](C)CN1/C(=N/C2=O)Nc2ccc(CN3CCN(C(=O)[C@@H]4CCN(c5cc(F)c([C@H]6CCC(=O)NC6=O)c(F)c5)C4)CC34COC4)cc21 [Example 199, (R)-3-(2,6-difluoro-4-((R)-3-(5-(((R,E)-1^1,2^6,7-trimethyl-3-oxo-5^2,5^3-dihydro-1^1H,5^1H-11-oxa-4-aza-5(2,1)-benzo[d]imidazola-2(2,4)-pyridina-1(4,5)-pyrazolacycloundecaphane-5^6-yl)methyl)-2-oxa-5,8-diazaspiro[3.5]nonane-8-carbonyl)pyrrolidin-1-yl)phenyl)piperidine-2,6-dione] | 752 | 73.3 | 638 | 76.5
6 | Cc1cc2cc(n1)-c1cnn(C)c1OCCC[C@@H](C)CN1/C(=N/C2=O)Nc2ccc(N3CCC(C(=O)N4CC(Oc5cc(F)c([C@H]6CCC(=O)NC6=O)c(F)c5)C4)CC3)cc21 [Example 403, (R)-3-(2,6-difluoro-4-((1-(1-((R,E)-1^1,2^6,7-trimethyl-3-oxo-5^2,5^3-dihydro-1^1H,5^1H-11-oxa-4-aza-5(2,1)-benzo[d]imidazola-2(2,4)-pyridina-1(4,5)-pyrazolacycloundecaphane-5^6-yl)piperidine-4-carbonyl)azetidin-3-yl)oxy)phenyl)piperidine-2,6-dione] | 857 | 82.98 | 1070 | 87.5
7 | COCc1cc2c(cc1N1CCN(C3CCN(c4cc(F)c([C@H]5CCC(=O)NC5=O)c(F)c4)CC3)CC1)N1C[C@H](C)CCCOc3c(cnn3C)-c3cc(cc(C)n3)C(=O)/N=C/1N2 [Example 390, (R)-3-(2,6-difluoro-4-(4-(4-((R,E)-5^5-(methoxymethyl)-1^1,2^6,7-trimethyl-3-oxo-5^2,5^3-dihydro-1^1H,5^1H-11-oxa-4-aza-5(2,1)-benzo[d]imidazola-2(2,4)-pyridina-1(4,5)-pyrazolacycloundecaphane-5^6-yl)piperazin-1-yl)piperidin-1-yl)phenyl)piperidine-2,6-dione] | 1690 | 73.87 | 2490 | 87.7
8 | Cc1cc2cc(n1)-c1cnn(C)c1OCC[C@H]1C[C@@H]1CN1/C(=N/C2=O)Nc2ccc(N3CCN(CC4CN(c5cc(F)c([C@H]6CCC(=O)NC6=O)c(F)c5)C4)CC3)cc21 [Example 461, (R)-3-(4-(3-((4-((7^1S,7^2R,E)-1^1,2^6-dimethyl-3-oxo-5^2,5^3-dihydro-1^1H,5^1H-10-oxa-4-aza-5(2,1)-benzo[d]imidazola-2(2,4)-pyridina-1(4,5)-pyrazola-7(1,2)-cyclopropanacyclodecaphane-5^6-yl)piperazin-1-yl)methyl)azetidin-1-yl)-2,6-difluorophenyl)piperidine-2,6-dione] | 702 | 84.7 | 1640 | 90.6
9 | Cc1cc2cc(n1)-c1cnn(C)c1OCCC[C@@H](C)CN1/C(=N/C2=O)Nc2ccc(C(=O)N[C@@H]3CCN(CCc4cc(F)c([C@H]5CCC(=O)NC5=O)c(F)c4)CC3(C)C)cc21 [Example 263, (R,E)-N—((R)-1-(4-((R)-2,6-dioxopiperidin-3-yl)-3,5-difluorophenethyl)-3,3-dimethylpiperidin-4-yl)-1^1,2^6,7-trimethyl-3-oxo-5^2,5^3-dihydro-1H,5^1H-11-oxa-4-aza-5(2,1)-benzo[d]imidazola-2(2,4)-pyridina-1(4,5)-pyrazolacycloundecaphane-5^6-carboxamide] | 597 | 78.67 | 351 | 93.6
10 | Cc1cc2cc(n1)-c1cnn(C)c1OCCC[C@@H](C)CN1/C(=N/C2=O)Nc2ccc(CN3CCN(C(=O)[C@@H]4CCN(c5cc(F)c([C@H]6CCC(=O)NC6=O)c(F)c5)C4)CC3=O)cc21 [Example 200, (R)-3-(2,6-difluoro-4-((R)-3-(3-oxo-4-(((R,E)-1^1,2^6,7-trimethyl-3-oxo-5^2,5^3-dihydro-1^1H,5^1H-11-oxa-4-aza-5(2,1)-benzo[d]imidazola-2(2,4)-pyridina-1(4,5)-pyrazolacycloundecaphane-5^6-yl)methyl)piperazine-1-carbonyl)pyrrolidin-1-yl)phenyl)piperidine-2,6-dione] | 1380 | 73.04 | 1220 | 86
11 | Cc1cc2cc(n1)-c1cnn(C)c1OCCC[C@@H](C)CN1/C(=N/C2=O)Nc2ccc(C(=O)N3CC(N(C)CCc4cc(F)c([C@H]5CCC(=O)NC5=O)c(F)c4)C3)cc21 [Example 306, (R)-3-(2,6-difluoro-4-(2-(methyl(1-((R,E)-1^1,2^6,7-trimethyl-3-oxo-5^2,5^3-dihydro-1^1H,5^1H-11-oxa-4-aza-5(2,1)-benzo[d]imidazola-2(2,4)-pyridina-1(4,5)-pyrazolacycloundecaphane-5^6-carbonyl)azetidin-3-yl)amino)ethyl)phenyl)piperidine-2,6-dione] | 614 | 63.09 | 742 | 84.3
12 | Cc1cc2cc(n1)-c1cnn(C)c1OCCC[C@@H](C)CN1/C(=N/C2=O)Nc2ccc(C(=O)N(C)C3CN(CCc4cc(F)c([C@H]5CCC(=O)NC5=O)c(F)c4)C3)cc21 [Example 308] | 646 | 64.88 | 702 | 88.5
13 | Cc1cc2cc(n1)-c1cnn(C)c1OCCC[C@@H](C)CN1/C(=N/C2=O)Nc2ccc(CN3CCN(C(=O)[C@@H]4CCN(c5cc(F)c([C@H]6CCC(=O)NC6=O)c(F)c5)C4)C[C@@H]3C)cc21 [Example 99] | 700 | 75.6 | 1400 | 82.7
14 | Cc1cc2cc(n1)-c1cnn(C)c1OCCC[C@@H](C)CN1/C(=N/C2=O)Nc2ccc(CN3CCN(C(=O)[C@@H]4CCN(c5cc(F)c(C6CCC(=O)NC6=O)c(F)c5)C4)[C@H](C)C3)cc21 (stereo partly drawn) [Example 106, (R)-3-(2,6-difluoro-4-((R)-3-((R)-2-methyl-4-(((R,E)-1^1,2^6m7-trimethyl-3-oxo-5^2,5^3-dihydro-1^1H,5^1H -11-oxa-4-aza-5(2,1)-benzo[d]imidazola-2(2,4)-pyridina-1(4,5)-pyrazolacycloundecaphane-5^6-yl)methyl)piperazine-1-carbonyl)pyrrolidin-1-yl)phenyl)piperidine-2,6-dione] | 1200 | 74.4 | 1700 | 79.1
